pIC50: −log10 of the molar value.
Biological target: bile salt export pump (BSEP) (Homo sapiens, UniProt O95342)
Type: biochemical

Chain of bile salt export pump (BSEP) (O95342 whole entry): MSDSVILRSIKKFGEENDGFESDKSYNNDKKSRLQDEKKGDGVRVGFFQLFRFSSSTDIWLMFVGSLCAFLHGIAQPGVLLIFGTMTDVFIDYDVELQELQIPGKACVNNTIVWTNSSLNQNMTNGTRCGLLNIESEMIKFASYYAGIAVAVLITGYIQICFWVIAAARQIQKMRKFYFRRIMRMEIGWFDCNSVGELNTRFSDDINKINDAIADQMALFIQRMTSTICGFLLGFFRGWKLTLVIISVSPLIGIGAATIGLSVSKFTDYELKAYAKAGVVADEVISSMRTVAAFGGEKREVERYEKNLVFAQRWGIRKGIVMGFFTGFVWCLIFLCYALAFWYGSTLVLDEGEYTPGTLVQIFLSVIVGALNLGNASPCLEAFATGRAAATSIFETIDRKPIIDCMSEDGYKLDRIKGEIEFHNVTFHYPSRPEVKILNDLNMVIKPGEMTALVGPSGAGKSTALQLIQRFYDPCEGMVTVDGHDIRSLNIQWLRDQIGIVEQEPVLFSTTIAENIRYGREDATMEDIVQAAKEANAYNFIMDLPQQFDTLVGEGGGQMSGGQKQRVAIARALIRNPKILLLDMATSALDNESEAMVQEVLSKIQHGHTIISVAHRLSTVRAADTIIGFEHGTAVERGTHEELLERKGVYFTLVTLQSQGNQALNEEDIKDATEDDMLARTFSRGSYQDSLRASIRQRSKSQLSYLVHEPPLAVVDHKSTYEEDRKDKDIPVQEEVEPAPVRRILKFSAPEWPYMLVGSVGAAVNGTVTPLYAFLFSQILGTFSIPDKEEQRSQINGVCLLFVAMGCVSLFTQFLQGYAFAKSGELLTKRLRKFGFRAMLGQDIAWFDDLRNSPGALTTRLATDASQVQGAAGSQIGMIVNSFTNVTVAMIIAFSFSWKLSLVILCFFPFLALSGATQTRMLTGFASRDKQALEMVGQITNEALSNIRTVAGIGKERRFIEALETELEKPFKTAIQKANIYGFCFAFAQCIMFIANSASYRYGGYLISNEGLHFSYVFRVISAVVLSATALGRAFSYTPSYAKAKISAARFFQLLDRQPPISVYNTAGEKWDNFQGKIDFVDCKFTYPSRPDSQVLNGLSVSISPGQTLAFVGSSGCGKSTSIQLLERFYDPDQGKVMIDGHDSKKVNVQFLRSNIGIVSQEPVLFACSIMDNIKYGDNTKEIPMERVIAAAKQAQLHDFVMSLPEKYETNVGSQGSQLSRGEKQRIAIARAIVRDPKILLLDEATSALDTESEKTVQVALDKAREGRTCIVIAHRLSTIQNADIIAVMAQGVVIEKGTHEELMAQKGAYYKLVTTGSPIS

## Cc1cc(OCCCS(C)(=O)=O)cc(C)c1-c1cccc(COc2ccc3c(c2)OC[C@H]3CC(=O)O)c1 [TAK-875]
  pIC50: 4.84

From PMC5414857 (Toxicological Sciences, 2017)
